We go through one compound from article PMC7948422, “Repurposing p97 inhibitors for chemical modulation of the bacterial ClpB–DnaK bichaperone system” (The Journal of Biological Chemistry, 2020).

For one series, the target named is T1, DnaK NBD (Escherichia coli, UniProt P0A6Y8).
T1 construct: the NBD of E. coli DnaK (residues 1–388); His-tag (pET28a) (C); made in house; host or cells: E. coli BL21(DE3)
Description: Surface plasmon resonance, immobilized DnaK NBD. It is filed as binding. The procedure: ClpB, DnaK, and the NBD of DnaK were extensively dialyzed against the SPR buffer (20-mM Hepes, pH 7.4, 150-mM NaCl, 20-mM MgCl2, 1-mM EDTA, 1-mM DTT). After dialysis, the protein concentration was determined by the Bradford method. The DBeQ–protein interactions were studied using a Biacore T200 instrument (GE Healthcare) at 25 °C. The proteins were diluted to 300 μg/ml in 10-mM sodium acetate buffer (pH 5 for ClpB DnaK or pH 4 for NBD) and immobilized on HC1500M sensor chips (Xantec) by standard amine coupling chemistry as described previously ([70]). A reference flow cell was created by ethyl(dimethylaminopropyl) carbodiimide/N-hydroxysuccinimide activation followed by quenching with 1 M ethanolamine (pH 9.0). Solvent correction curves were obtained at the beginning and end and after every 50 injection cycles by injecting varying DMSO concentrations (4.0, 4.4, 4.6, 4.8, 5.0, 5.2, 5.4, and 5.9% [v/v]). […]
Binding isotherms were obtained with the ligand diluted to different concentrations in the SPR running buffer HBSMTD (20-mM Hepes, pH 7.4, 140-mM NaCl, 20-mM MgCl2, 5% (v/v) DMSO, 0.005% (v/v) Tween-20). […] The dissociation constants determined from those experiments were ∼20 μM for ATPγS and ∼2 mM for adenosine. […]
The resulting sensorgrams were analyzed using Biacore T200 Evaluation Software v3.0 according to the following procedure. […]
Background: SPR reads the build-up and loss of mass on a sensor chip optically.

Series [1] has as its target T2, DnaK (Escherichia coli, UniProt P0A6Y8).
T2 construct: full-length E. coli DnaK (residues 1–638); made in house; host or cells: E. coli BL21(DE3)
In words: DnaK ATPase activity assay. The format is biochemical. The following applies: 100 µM DBeQ, 37 °C. The procedure: To determine the ATPase activity of DnaK, 18 μl of DnaK solution or DnaK NBD solution prepared in buffer C was mixed with 1 μl of the investigated compounds or DMSO as a control. Samples without DnaK were used as control blanks. The samples were preincubated for 10 min at 37 °C. The reaction was initiated by adding 1 μl of 100-mM ATP bringing the final concentration of DnaK to 1.1 μM or DnaK NBD to 3.4 μM. The samples were incubated at 37 °C for 70 min for DnaK or 75 min for NBD. The concentration of inorganic phosphate produced from ATP in the presence of DnaK was determined as described above for ClpB.

Series [2] can be described thus: Solubility of DBeQ in aqueous buffer (absorbance/turbidity). The settings on record: aqueous ATPase assay buffer, 1% DMSO. The format is physicochemical. The procedure: Supplementary Figure 3. Solubility of DBeQ in aqueous solution. Solutions of DBeQ
were prepared in the ATPase assay buffer containing 1% DMSO. (A) DBeQ absorbance at
320 nm (blue) and solution turbidity at 400 nm (red) for increasing DBeQ concentrations. (B)
UV absorption spectrum of 100 μM DBeQ.
Supplementary Figure 4. The ATP-binding modules (D1 and D2) separated with the
middle domain (MD) in E. coli ClpB (PDB entry: 5OG1). Trp462 (red), Trp543 (magenta),
and the ATP-analog, ATPγS (dark blue) bound in D1 and D2 are shown with a “stick”
representation. Image generated using PyMOL 1.3 (Schrödinger LLC, www.pymol.com). […]

Series [3] deals with ClpB W462F, W543F, W462F/W543F. Description: Basal ATPase activity of ClpB Trp/Phe variants. The format is biochemical, Escherichia coli. The following applies: absence of casein. The procedure:
To determine the ATPase activity, ClpB was diluted to 28 μg/ml (49-nM hexamer) in buffer C (50-mM Tris-HCl, pH 7.4, 20-mM MgCl2, 1-mM EDTA, 0.5-mM tris(2-carboxyethyl)phosphine [TCEP]). In some experiments, the ClpB solution was supplemented with 17.4 μg/ml (10 μM) κ-casein. The ClpB aliquots (18 μl) were mixed with 1 μl of the investigated compounds at different concentrations in 100% DMSO or with DMSO as a control. A sample without ClpB was used as a baseline control. After a 10-min preincubation at 37 or 45 °C, the ATP hydrolysis reaction was initiated by adding 1 μl of 100-mM ATP. The samples were incubated for 60 min (basal ClpB activity in the absence of κ-casein) or 15 min (in the presence of κ-casein) at 37 °C or 30 min at 45 °C in the absence of casein. For the E678Q ClpB variant, the incubation time in the presence of κ-casein was 60 min. After incubation, 15 μl of each sample was mixed with 200 μl of the ammonium molybdate/malachite green reagent ([67]) dispensed into a 96-well plate, followed by an addition of 30 μl of 34% sodium citrate ([68]). The plate was agitated inside a Synergy H1 reader (BioTek, Winooski, VT) for 15 min at room temperature, and the samples’ absorbance was measured at 630 nm. The readouts for ClpB-containing samples were corrected for absorbance of samples without ClpB, to account for nonenzymatic production of inorganic phosphate. […]

In series [4] the target is T2, DnaK. In words: DnaK binding to FITC-B2 peptide, fluorescence anisotropy. The settings on record: FITC-B2 20 nM, increasing DBeQ. The procedure:
To monitor interactions between the peptide B2 and DnaK, the DnaK stock was diluted in buffer C (50-mM Tris-HCl, pH 7.4, 20-mM MgCl2, 1-mM EDTA, 0.5-mM TCEP) to a final concentration of 1 μM. DBeQ solutions in DMSO (20 μl) were mixed with 372 μl of 1-μM DnaK. After 10 min of incubation at room temperature, the samples were supplemented with 8 μl of 1-μM FITC-B2 in buffer C (FITC-Ahx-[…]-NH2) ([51]). The FITC-B2 sample without DnaK was used as a control. After a 30-min incubation at room temperature, fluorescence anisotropy of FITC-B2 was measured with a PerkinElmer LS55 (λexc = 485 nm (slit: 15 nm), λem = 521 (slit: 20 nm)).

“Also recorded” adds a separate entry of the source.

T2 sequence (P0A6Y8 whole entry, the tested form may be a part): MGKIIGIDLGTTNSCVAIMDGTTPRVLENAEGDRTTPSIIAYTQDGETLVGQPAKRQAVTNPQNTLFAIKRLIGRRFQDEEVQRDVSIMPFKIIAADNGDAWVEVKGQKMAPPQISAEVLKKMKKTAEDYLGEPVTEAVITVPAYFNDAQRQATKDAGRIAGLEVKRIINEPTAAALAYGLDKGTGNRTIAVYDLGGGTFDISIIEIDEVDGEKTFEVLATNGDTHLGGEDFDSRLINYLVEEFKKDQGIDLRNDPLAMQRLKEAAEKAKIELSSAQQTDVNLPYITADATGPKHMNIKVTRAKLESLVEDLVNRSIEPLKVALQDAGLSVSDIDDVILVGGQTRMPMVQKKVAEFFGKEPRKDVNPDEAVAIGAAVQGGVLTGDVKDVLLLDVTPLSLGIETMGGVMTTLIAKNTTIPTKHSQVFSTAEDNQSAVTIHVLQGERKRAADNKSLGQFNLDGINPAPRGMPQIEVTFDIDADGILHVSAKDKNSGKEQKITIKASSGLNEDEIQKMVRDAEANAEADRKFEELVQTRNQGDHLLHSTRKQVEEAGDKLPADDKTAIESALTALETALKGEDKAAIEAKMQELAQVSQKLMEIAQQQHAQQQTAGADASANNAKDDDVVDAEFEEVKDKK
T1 sequence (P0A6Y8 1-388): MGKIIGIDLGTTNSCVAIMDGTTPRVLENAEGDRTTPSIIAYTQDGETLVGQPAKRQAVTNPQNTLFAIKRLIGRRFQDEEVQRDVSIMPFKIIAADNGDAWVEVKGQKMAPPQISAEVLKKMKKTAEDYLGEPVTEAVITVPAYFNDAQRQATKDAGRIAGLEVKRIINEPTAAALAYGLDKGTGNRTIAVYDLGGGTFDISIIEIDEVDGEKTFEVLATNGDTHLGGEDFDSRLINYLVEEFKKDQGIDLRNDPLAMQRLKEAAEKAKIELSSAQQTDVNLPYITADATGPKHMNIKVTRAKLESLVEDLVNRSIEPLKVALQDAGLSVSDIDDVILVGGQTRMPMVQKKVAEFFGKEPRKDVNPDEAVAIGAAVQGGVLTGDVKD

With `c1ccc(CNc2nc(NCc3ccccc3)c3ccccc3n2)cc1` [DBeQ, N^2,N^4-dibenzylquinazoline-2,4-diamine], on DnaK NBD, the Kd came to 95 ± 16 µM. Further, the “Bmax (SPR signal at saturation), DnaK NBD” value at DnaK NBD (SPR) is given as 1.98 ± 0.20. Further, the “effect on DnaK ATPase activity” value at DnaK [1] was “did not detect inhibition; also recorded: did not affect”. Further, the “DBeQ concentrations obeying Beer–Lambert law without significant turbidity increase” value in series [2] is listed as “up to 100 μM”. For the same compound, in series [3], the “inhibition of basal ATPase of Trp/Phe ClpB variants” value is reported as “became sensitive to inhibition”. The “suppression of DnaK binding to substrate-mimicking peptide” value on DnaK [4] is “did not detect”.

One may read the Kd as a measure of binding affinity in units of concentration. A high value points to weaker binding.
